{"source": "paper PMC6918900", "about": "“Concentration-Dependent Activity of Hydromethylthionine on Cognitive Decline and Brain Atrophy in Mild to Moderate Alzheimer’s Disease” (Journal of Alzheimer's Disease, 2019)", "key": {"[1]": {"system": "patients with mild to moderate Alzheimer's disease", "assay": "Hill equation concentration-response analysis (ADAS-cog11 and WBV)", "assay_type": "in vivo, human", "description": "In addition to the exposure-response analyses described above, a further standard pharmacological concentration-response analysis was undertaken using the Hill equation [40] applied to the ADAS-cog11 and whole brain volume data to characterize the overall response profile quantitatively and to investigate the lower concentration limit of the treatment effect. The Hill equation was applied under the assumption of non-cooperativity and was applied with an additional linear term to permit trends occurring at high concentrations to be included in the model. […] This was fitted separately for LMTM added to approved symptomatic treatments and for those who took the drug as monotherapy, with parameters estimated using a non-linear least squares estimator.\nIn order to relate Cmax,ss values to theoretical doses, a linear model was fitted to the mean plasma concentrations at the 8, 150, 200 and 250 mg/day doses: estimated dose=22.22×(Cmax, ss-0.016) where dose is in mg/day and Cmax,ss is ng/ml units."}, "[2]": {"assay": "Population PK: parent MT steady state plasma Cmax,ss in Phase III patients", "assay_type": "in vivo, human", "settings": "for % high Cmax (Cmax,ss > 0.373 ng/ml): LMTM 8 mg/day; for Cmax: human, plasma, oral, parent MT", "description": "Pharmacokinetic analyses were undertaken using plasma concentration data from patients who participated in either of two completed Phase III trials which have been described previously [[35, 36]]. In brief, the first (TRx-237-015) was a 15-month study which recruited 890 patients from 115 sites across 16 countries in EU, North America, Asia, and Russia. Patients had to be <90 years of age and have a diagnosis of mild to moderate probable AD according to National Institute of Aging (NIA) and Alzheimer’s Association (AA) criteria and a Mini-Mental State Examination (MMSE) score of 14–26 inclusive and with a Clinical Dementia Rating (CDR) total score of 1 or 2. The second study (TRx-237-005) was an 18-month trial which recruited 800 patients from 108 sites in Canada, United States, Australia, and Europe. Patients had to meet the same age and diagnosis criteria, except that they were required to have a MMSE score of 20–26 inclusive and a CDR total score of 0.5 or 1.0. Concomitant use of AChEIs or memantine (or both) was permitted in both studies provided this was at a stable dose for at least 18 weeks before randomization. Concomitant use of serotonergic antidepressant, antipsychotic (except clozapine or olanzapine), and sedative medications was also permitted at stable doses where clinically feasible. Patients were randomly assigned to receive LMTM at doses of 250, 150, or 8 mg/day in Study 015 and doses of 200 or 8 mg/day in Study TRx-237-005. Randomization in both studies was stratified according to geographical region, use of AD-labelled co-medications, and severity of AD. The co-primary outcomes in both studies were the Alzheimer’s Disease Assessment Scale–cognitive subscale, 11-item version (ADAS-cog11) and the Alzheimer’s Disease Co-operative Study–Activities of Daily Living, 23-item version (ADCS-ADL23) scale measured at baseline and every 3 months. MRI scans were undertaken at screening or baseline and at 3-month intervals. MRI acquisition protocol and parameters were standardized across sites and all data were centrally collected, quality-controlled, and analyzed blind by an imaging core lab (Bioclinica). Volumetric data were used to measure changes in whole brain volume (WBV, which provides a measure of the volume of grey and white matter), lateral ventricular volume (LVV), and other regional volumes including hippocampus, although only the global measures are reported in the present study. Baseline volumes were assessed using FreeSurfer 5.3, and volume change was assessed using Boundary Shift Integral and Tensor Based Morphometry for regional structures. Full details and study protocols for these two trials are available [[35, 36]].\nBlood samples for assessment of parent MT, N-desmethyl MT, and total MT (sum of parent MT and a labile LMT conjugate) were collected from each patient on the first treatment visit (two samples: pre-dose and approximately 3.5 h after the dose) and at each subsequent on-treatment visit. The protocol specified that PK plasma sampling was to be conducted only at sites with adequate facilities (i.e., a refrigerated centrifuge and adequate capability to reliably freeze samples). Blinded analyses were conducted at the University of Aberdeen GLP Test Facility. MT levels in plasma were measured using liquid chromatography-tandem mass spectrometry. […] The method was validated for use in the Phase III studies over the range 0.2 to 10 ng/ml. Extrapolated MT concentrations were available below the lower limit of quantitation (but above the lower limit of detection) in approximately 35% of the Day 1 patients randomized to the 8 mg/day dose. The method was validated for long-term sample storage of 162 days at –20°C. […] Plasma samples from a total of 1,296 patients from the two Phase III studies in AD were available for analysis and, of these, 1,162 also had baseline and post-baseline efficacy outcome data available for analysis. […]"}}, "note": "Where two headings read alike, the source gives them in different places.", "data": [{"smiles": "CN(C)c1ccc2c(c1)Sc1cc(N(C)C)ccc1N2", "note": "[LMTM, leuco-methylthioninium bis(hydromethanesulphonate)]", "values": [{"measurement": "maximum predicted pharmacological activity as add-on therapy relative to monotherapy", "setting": "[1]; Hill equation analysis", "result": "about half"}, {"measurement": "plasma concentrations at which treatment effects reach a plateau", "setting": "[1]; Hill equation estimates", "result": "0.9 to 4.1", "unit": "ng/mL"}, {"measurement": "theoretical doses corresponding to the plateau", "setting": "[1]; Hill equation estimates", "result": "16 to 80", "unit": "mg/day"}, {"measurement": "lower limit of drug activity (plasma Cmax,ss)", "setting": "[1]; monotherapy and add-on therapy, cognitive decline and whole brain atrophy", "result": "approximately 0.29 ng/ml"}, {"measurement": "patients with subthreshold plasma levels (below 0.2 ng/ml) after first dose on Day 1", "setting": "[2]; 8 mg/day", "result": 35, "unit": "%"}, {"measurement": "steady state plasma levels", "setting": "[2]; 8 mg/day dose", "result": "0.3 to 0.8", "unit": "ng/mL"}, {"measurement": "probability of achieving the Cmax,ss threshold of 0.373 ng/ml", "setting": "[2]; 8 mg/day, creatinine clearance 20 ml/min/1.73 m^2", "result": "~100", "unit": "%"}, {"measurement": "probability of achieving the Cmax,ss threshold of 0.373 ng/ml", "setting": "[2]; 8 mg/day, creatinine clearance 106 ml/min/1.73 m^2", "result": "essentially zero"}, {"measurement": "% high Cmax (Cmax,ss > 0.373 ng/ml)", "setting": "[2]; patients not using anti-inflammatory and antirheumatic products, non-steroids", "result": 67.3, "unit": "%"}, {"measurement": "% high Cmax (Cmax,ss > 0.373 ng/ml)", "setting": "[2]; patients not using antihypertensive/antiarrhythmic drugs", "result": 60.6, "unit": "%"}, {"measurement": "% high Cmax (Cmax,ss > 0.373 ng/ml)", "setting": "[2]; patients not using antithrombotic agents", "result": 62.6, "unit": "%"}, {"measurement": "% high Cmax (Cmax,ss > 0.373 ng/ml)", "setting": "[2]; patients not using blood glucose lowering drugs, excluding insulins", "result": 65.6, "unit": "%"}, {"measurement": "% high Cmax (Cmax,ss > 0.373 ng/ml)", "setting": "[2]; patients not using drugs for peptic ulcer and gastro-esophageal reflux disease", "result": 65.3, "unit": "%"}, {"measurement": "% high Cmax (Cmax,ss > 0.373 ng/ml)", "setting": "[2]; patients not using lipid modifying agents", "result": 66.0, "unit": "%"}, {"measurement": "% high Cmax (Cmax,ss > 0.373 ng/ml)", "setting": "[2]; patients not using thyroid preparations", "result": 64.3, "unit": "%"}, {"measurement": "% high Cmax (Cmax,ss > 0.373 ng/ml)", "setting": "[2]; patients using anti-inflammatory and antirheumatic products, non-steroids", "result": 59.5, "unit": "%"}, {"measurement": "% high Cmax (Cmax,ss > 0.373 ng/ml)", "setting": "[2]; patients using antithrombotic agents", "result": 70.3, "unit": "%"}, {"measurement": "% high Cmax (Cmax,ss > 0.373 ng/ml)", "setting": "[2]; patients using blood glucose lowering drugs, excluding insulins", "result": 66.2, "unit": "%"}, {"measurement": "% high Cmax (Cmax,ss > 0.373 ng/ml)", "setting": "[2]; patients using drugs for peptic ulcer and gastro-esophageal reflux disease", "result": 66.9, "unit": "%"}, {"measurement": "% high Cmax (Cmax,ss > 0.373 ng/ml)", "setting": "[2]; patients using lipid modifying agents", "result": 65.2, "unit": "%"}, {"measurement": "% high Cmax (Cmax,ss > 0.373 ng/ml)", "setting": "[2]; patients using thyroid preparations", "result": 74.1, "unit": "%"}, {"measurement": "estimated mean plasma concentration", "setting": "[2]; expected at 16 mg/day", "result": "0.88 ± 0.18", "unit": "ng/mL"}, {"measurement": "plasma concentrations", "setting": "[2]; high doses (150–250 mg/day)", "result": "4 to 21", "unit": "ng/mL"}, {"measurement": "Cmax", "setting": "[2]; 8 mg/day, 8 mg/day – Group 1, read-out: Cmax,ss Mean (SD)", "result": 0.334, "unit": "ng/mL"}, {"measurement": "Cmax", "setting": "[2]; 8 mg/day, 8 mg/day – Group 1, read-out: Cmax,ss Range", "result": "0.257 to 0.373", "unit": "ng/mL"}, {"measurement": "Cmax", "setting": "[2]; 8 mg/day, 8 mg/day – Group 2, read-out: Cmax,ss Range", "result": "0.373 to 0.414", "unit": "ng/mL"}, {"measurement": "Cmax", "setting": "[2]; 8 mg/day, 8 mg/day – Group 3, read-out: Cmax,ss Mean (SD)", "result": 0.449, "unit": "ng/mL"}, {"measurement": "Cmax", "setting": "[2]; 8 mg/day, 8 mg/day – Group 3, read-out: Cmax,ss Range", "result": "0.415 to 0.478", "unit": "ng/mL"}, {"measurement": "Cmax", "setting": "[2]; 8 mg/day, 8 mg/day – Group 4, read-out: Cmax,ss Mean (SD)", "result": 0.565, "unit": "ng/mL"}, {"measurement": "Cmax", "setting": "[2]; 8 mg/day, 8 mg/day – Group 4, read-out: Cmax,ss Range", "result": "0.479 to 0.812", "unit": "ng/mL"}, {"measurement": "Cmax", "setting": "[2]; 150 mg/day, 150 mg/day, read-out: Cmax,ss Mean (SD)", "result": 7.82, "unit": "ng/mL"}, {"measurement": "Cmax", "setting": "[2]; 150 mg/day, 150 mg/day, read-out: Cmax,ss Range", "result": "5.1 to 18.6", "unit": "ng/mL"}, {"measurement": "Cmax", "setting": "[2]; 200 mg/day, 200 mg/day, read-out: Cmax,ss Mean (SD)", "result": 10.1, "unit": "ng/mL"}, {"measurement": "Cmax", "setting": "[2]; 200 mg/day, 200 mg/day, read-out: Cmax,ss Range", "result": "6.56 to 21.3", "unit": "ng/mL"}, {"measurement": "Cmax", "setting": "[2]; 250 mg/day, 250 mg/day, read-out: Cmax,ss Mean (SD)", "result": 12.6, "unit": "ng/mL"}, {"measurement": "Cmax", "setting": "[2]; 250 mg/day, 250 mg/day, read-out: Cmax,ss Range", "result": "8.83 to 21.2", "unit": "ng/mL"}, {"measurement": "Cmax", "setting": "[2]; 8 mg/day – Group 2, read-out: Cmax,ss Mean (SD)", "result": 0.393, "unit": "ng/mL"}]}]}
